Reference: patent US11415579B2, “Assay for measuring a rate of reaction between a target and a ligand candidate” (Imperial College Innovations Ltd., priority 2016, dated 2022)
Values joined by “and” are separate entries in the source; they are usually repeats but may differ in a detail not shown here. Identical values can stand only once.

Tests used:
[1] = molecular target: T1, Cdk2(S276C) (C177A) (Homo sapiens, UniProt P24941, C177A/S276C); assay: Kinetic thiol consumption assay with Cdk2 mutant S276C; type: binding; set-up: key to Rate enhancement, Cdk2 S276C: rate constant with Cdk2 ÷ rate constant with model thiol (fold); settings: for Rate enhancement, Cdk2 S276C / Rate constant with Cdk2 S276C: additional mutation C177A; for Rate constant with Cdk2 S276C: Protein: Cdk2, cysteine position S276C, in h^-1
T1 construct: poly-histidine; made in house; host or cells: E. coli
How it was run: (§1)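 His-tagged single-surface-cysteine Cdk2 mutants (C177A background) from E. coli, 5 μM in degassed phosphate buffer pH 8, pre-treated with immobilized TCEP beads. Fluorescence (ex/em 380/470 nm) read after 1 h at room temperature, normalized to DMSO/thiol-only control; first-order decay fits gave rate constants, divided by model-thiol rate for rate enhancement.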

[2] = system: Cdk2 constructs (except Cdk(WT)); assay: Average of several thiols (Cdk2 constructs except WT) as model thiol; type: binding, human; settings: average over all Cdk2 constructs except Cdk2(WT)
Experimental: In Example 1 rate enhancements were calculated relative to the control thiol, glutathione.
As an example, the rate constant for ligand candidate EL1157 in reaction with all the Cdk2 constructs (except Cdk(WT)) were averaged and then compared to the rate constant with Cdk2(WT).

[3] = molecular target: T2, Cdk2(H71C) (C177A) (Homo sapiens, UniProt P24941, C177A/H71C); assay: Kinetic thiol consumption assay with Cdk2 mutant H71C; type: binding; set-up: key to Rate enhancement, Cdk2 H71C: rate constant with Cdk2 ÷ rate constant with model thiol (fold); settings: for Rate enhancement, Cdk2 H71C / Rate constant with Cdk2 H71C: additional mutation C177A; for Rate constant with Cdk2 H71C: Protein: Cdk2, cysteine position H71C, in h^-1
T2 construct: poly-histidine; made in house; host or cells: E. coli
How it was run: as §1

[4] = molecular target: T3, Cdk2(T182C) (C177A) (Homo sapiens, UniProt P24941, C177A/T182C); assay: Kinetic thiol consumption assay with Cdk2 mutant T182C; type: binding; set-up: key to Rate enhancement, Cdk2 T182C: rate constant with Cdk2 ÷ rate constant with model thiol (fold); settings: for Rate enhancement, Cdk2 T182C / Rate constant with Cdk2 T182C: additional mutation C177A; for Rate constant with Cdk2 T182C: Protein: Cdk2, cysteine position T182C, in h^-1
T3 construct: poly-histidine; made in house; host or cells: E. coli
How it was run: as §1

[5] = molecular target: T4, human cyclin-dependent kinase 2 (Cdk2) (Homo sapiens, UniProt P24941); assay: Kinetic thiol consumption assay with wild type Cdk2 (C177); type: binding; set-up: key to Rate enhancement, Cdk2 WT: k(Cdk2) divided by k(model thiol); Rate constant with Cdk2 (k(Cdk2)): unit not given here; settings: for Rate constant with Cdk2 (k(Cdk2)): 500 μM ligand, 5 μM thiol, phosphate buffer pH 8; for Rate enhancement, Cdk2 WT: no additional mutations; for Rate constant with Cdk2 WT: Protein: Cdk2, cysteine position WT, in h^-1; for k(Cdk2)/k(Cdk2_mut) rate enhancement: model thiol Cdk2[C177A, F80C, K278C]; for k(Cdk2)/k(GSH) rate enhancement: model thiol glutathione
T4 construct: poly-histidine; made in house; host or cells: E. coli
How it was run: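 His-tagged human Cdk2 (single surface cysteine C177), expressed in E. coli, or a model thiol at 5 μM in degassed phosphate buffer pH 8 was pre-treated with immobilized TCEP beads (2% v/v) before acrylamide addition. Fluorescence (ex/em 380/470 nm) was read after 1 h at room temperature, normalized to DMSO/thiol-only control and plotted versus time.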

[6] = molecular target: T5, Cdk2(R122C) (C177A) (Homo sapiens, UniProt P24941, C177A/R122C); assay: Kinetic thiol consumption assay with Cdk2 mutant R122C; type: binding; set-up: key to Rate enhancement, Cdk2 R122C: rate constant with Cdk2 ÷ rate constant with model thiol (fold); settings: for Rate enhancement, Cdk2 R122C / Rate constant with Cdk2 R122C: additional mutation C177A; for Rate constant with Cdk2 R122C: Protein: Cdk2, cysteine position R122C, in h-1
T5 construct: poly-histidine; made in house; host or cells: E. coli
How it was run: as §1

[7] = molecular target: T6, Cdk2[C177A, F80C, K278C] (Homo sapiens, UniProt P24941, C177A/F80C/K278C); assay: Kinetic thiol consumption assay with mutant Cdk2 as model thiol; type: binding; set-up: unit not given here; settings: 500 μM ligand, 5 μM thiol, phosphate buffer pH 8
T6 construct: poly-histidine; made in house; host or cells: E. coli
How it was run: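 Model thiol: His-tagged human Cdk2 C177A/F80C/K278C (two engineered surface cysteines), E. coli-expressed, 5 μM in degassed phosphate buffer pH 8 with immobilized TCEP beads (2% v/v). Fluorescence (ex/em 380/470 nm) followed over time at room temperature, normalized to DMSO/thiol control. First-order decay fit gives rate constants.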

[8] = Kinetic thiol consumption assay with model thiol glutathione; type: physicochemical; set-up: Rate constant with glutathione (k(GSH)): unit not given here; settings: for Rate constant with glutathione (k(GSH)): 500 μM ligand, 5 μM thiol, phosphate buffer pH 8; for Rate constant with Glutathione: Protein: Glutathione, cysteine position NA, in h-1
How it was run: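 First, 5 μM glutathione in degassed phosphate buffer (pH 8) receives immobilized TCEP beads (2% v/v). Then acrylamide is added and plates incubate 1 h at room temperature. Finally, fluorescence (380/470 nm) is normalized and fitted to first-order decay for rate constants.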

[9] = molecular target: T7, Cdk2(C177A, F80C) (Homo sapiens, UniProt P24941, C177A/F80C); assay: Kinetic thiol consumption assay with Cdk2 mutant F80C, incl. kobs versus concentration (Kd, k2); type: binding; set-up: key to Rate enhancement, Cdk2 F80C: Cdk2 rate constant divided by model-thiol rate constant; settings: for Rate enhancement, Cdk2 F80C / Rate constant with Cdk2 F80C: additional mutation C177A; for Rate constant with Cdk2 F80C: Protein: Cdk2, cysteine position F80C, in h^-1
T7 construct: poly-histidine; made in house; host or cells: E. coli
How it was run: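 His-tagged Cdk2(C177A/F80C) from E. coli or model thiol, 5 μM in degassed phosphate buffer pH 8 with TCEP beads, reacted with acrylamide ligands; fluorescence (ex/em 380/470 nm) normalized to DMSO control and fitted to first-order decay for kobs. Kd and k2 obtained from hyperbolic fit of kobs versus ligand concentration.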

[10] = molecular target: T8, Cdk2(N272C) (C177A) (Homo sapiens, UniProt P24941, C177A/N272C); assay: Kinetic thiol consumption assay with Cdk2 mutant N272C; type: binding; set-up: key to Rate enhancement, Cdk2 N272: rate constant with Cdk2 ÷ rate constant with model thiol (fold); settings: for Rate enhancement, Cdk2 N272: Cdk2 N272, additional mutation C177A; for Rate constant with Cdk2 N272C: Protein: Cdk2, cysteine position N272C, additional mutation C177A, in h^-1
T8 construct: poly-histidine; made in house; host or cells: E. coli
How it was run: as §1

[11] = molecular target: T9, Cdk2(S181C) (C177A) (Homo sapiens, UniProt P24941, C177A/S181C); assay: Kinetic thiol consumption assay with Cdk2 mutant S181C; type: binding; set-up: key to Rate enhancement, Cdk2 S181C: rate constant with Cdk2 ÷ rate constant with model thiol (fold); settings: for Rate enhancement, Cdk2 S181C / Rate constant with Cdk2 S181C: additional mutation C177A; for Rate constant with Cdk2 S181C: Protein: Cdk2, cysteine position S181C, in h^-1
T9 construct: poly-histidine; made in house; host or cells: E. coli
How it was run: as §1

[12] = molecular target: T10, Cdk2(F80C, C177A) (Homo sapiens, UniProt P24941, C177A/F80C); assay: Kinase assay; type: biochemical; settings: Cdk2(F80C, C177A) labelled with ligand
T10 construct: poly-histidine; made in house; host or cells: E. coli
Description: Again, 1-Cdk2 refers to Cdk2(F80C, C177A) labelled with EL1071 (FIG. 10(c)). Finally, the EL1071-Cdk2(F80C, C177A) complex was crystallized and the structure determined by X-ray crystallography (FIG. 11). This confirms that the ligand binds to the cysteine residue at F80C and blocks the protein's active site leading to the observed inhibition.

[13] = molecular target: T10, Cdk2(F80C, C177A); assay: Intact protein mass spectrometry of labelling; type: binding; settings: after 2 hours of incubation
Description: Mass spectrometry and X-ray crystallography were used to validate the binding of a hit ligand identified by the present method.
From the screen of Cdk2(F80C, C177A), we identified EL1071 as a hit molecule (rate enhancement relative to GSH=60.5).

Compound | Rate enhancement, Cdk2 S276C [1] | Rate constant with Cdk2 S276C [1] | Rate enhancement, Cdk2 H71C [3] | Rate constant with Cdk2 H71C [3] | Rate enhancement, Cdk2 T182C [4] | Rate constant with Cdk2 T182C [4] | Rate constant with Cdk2 (k(Cdk2)) [5] | Rate enhancement, Cdk2 WT [5] | Rate constant with Cdk2 WT [5] | k(Cdk2)/k(Cdk2_mut) rate enhancement [5] | k(Cdk2)/k(GSH) rate enhancement [5] | Rate enhancement, Cdk2 R122C [6] | Rate constant with Cdk2 R122C [6] | Rate constant with Cdk2[C177A, F80C, K278C] (k(Cdk2_mut)) [7] | Rate constant with glutathione (k(GSH)) [8] | Rate constant with Glutathione [8] | Rate enhancement, Cdk2 F80C [9] | Rate enhancement, Cdk2 N272 [10] | Rate enhancement, Cdk2 S181C [11] | Rate constant with Cdk2 S181C [11] | also measured
C=CC(=O)N1CCN(C(=O)OC(C)(C)C)c2ccccc21 [EL-1157] | 1.046 | 0.07038 | 0.3892 | 0.02618 | 2.337 | 0.1572 | 0.2006 | 2.982 | 0.2006 | 0.6586 | 1.592 | 0.07164 | 0.004819 | 0.3046 | 0.126 | 0.06726 | 0.5847 | 0.04255 | 0.2053 | 0.01381 | Rate constant k(Cdk2(S276C)) [1]: 0.0704 h⁻¹; Rate constant k(average) [2]: 0.0449 h⁻¹; Rate constant k(Cdk2(H71C)) [3]: 0.0261 h⁻¹; Rate constant k(Cdk2(T182C)) [4]: 0.1572 h⁻¹; Rate constant k(Cdk2(WT)) [5]: 0.2006 h⁻¹; k(Cdk2(WT))/k(average) ([5]; average of multiple Cdk2 mutants as control thiol): 4.46; Rate constant k(Cdk2(R122C)) [6]: 0.0048 h⁻¹; Rate constant k(Cdk2(F80C)) [9]: 0.0393 h⁻¹; Rate constant with Cdk2 F80C [9]: 0.03933; Rate constant k(Cdk2(N272C)) [10]: 0.0029 h⁻¹; Rate constant with Cdk2 N272C [10]: 0.002862; Rate constant k(Cdk2(S181C)) [11]: 0.0138 h⁻¹
C=CC(=O)N1CCCc2cc(C(=O)OC)ccc21 [EL-1071] | 1.09 | 0.05538 | 7.215 | 0.3666 | 7.764 | 0.3945 | 0.433 | 8.522 | 0.433 | 1.341 | 8.5 and 8.576 | 0.2848 | 0.01447 | 0.323 | 0.051 and 0.05049 | 0.05081 | 60.48 | 0.6083 | 0.5036 | 0.02559 | hit classification, Example 1 ([5]; hits defined as kCdk2/kGSH>5.8 (3 standard deviations over the mean)): hit fragment; inhibition of kinase activity [12]: completely inhibited; modification of Cdk2(F80C, C177A) by intact protein mass spectrometry [13]: completely monomodified; hit classification against Cdk2(F80C, C177A) [9]: hit molecule; rate enhancement relative to GSH ([9]; Cdk2(F80C, C177A) versus GSH): 60.5; Rate constant with Cdk2 F80C [9]: 3.073; Rate constant with Cdk2 N272C [10]: 0.03091
C=CC(=O)NC1(c2noc(C3CC3)n2)CCCC1 [CA-044] | 0.1116 | 0.0009087 | 0 |  | 0.2903 | 0.002365 | 0.00269 | 0.3307 | 0.002694 | 1.749 | 0.4838 | 0.2302 | 0.001875 | 0.00154 | 0.00557 | 0.008146 | 0 | 0 | 0.1134 | 0.0009239 | 
